Experimental data published in paper PMC5428509, “Irreversible inhibition of BTK kinase by a novel highly selective inhibitor CHMFL-BTK-11 suppresses inflammatory response in rheumatoid arthritis model” (Scientific Reports, 2017).

Experiments:
[1] = target: T1, BTK kinase (Bruton's tyrosine kinase) (Homo sapiens, UniProt Q06187); assay: ADP-Glo biochemical kinase assay; supported by Y551 autophosphorylation of wt vs C481S BTK and KinomeScan binding
T1 construct: purified BTK kinase

JAK3 kinase = target: T2, JAK3 kinase (Homo sapiens, UniProt P52333); assay: ADP-Glo biochemical kinase assay; also strong binding in KinomeScan at […]
T2 construct: purified JAK3 kinase protein

PFPK5(P.falciparum) = target: T3, PFPK5(P.falciparum) (Plasmodium falciparum, UniProt P61075); assay: biochemical; set-up: KinomeScan competition binding panel (DiscoveRx), percent of control at 1 uM; conditions: read-out: Percent Control
T3 construct: gene CRK2

PKNB(M.tuberculosis) = PKNB(M.tuberculosis) (Mycobacterium tuberculosis, UniProt P9WI81); assay: biochemical; set-up: KinomeScan competition binding panel (DiscoveRx), percent of control at 1 uM; conditions: read-out: Percent Control
ASK2 = target: T4, ASK2 (Homo sapiens, UniProt O95382); assay: biochemical; set-up: KinomeScan competition binding panel (DiscoveRx), percent of control at 1 uM; conditions: read-out: Percent Control
T4 construct: gene MAP3K6
Description: (§1) In order to further confirm the binding mode, we then tested the compounds in the BTK wild-type (wt) and BTK C481S mutant with immunoblotting by looking at the BTK Y551 auto-phosphorylation. […] In addition, a covalent bond was preferred to form between the […] acrylamide and Cys-481 near the hinge binding area, which further confirmed its irreversible binding mode (Fig. 1d). We next investigated CHMFL-BTK-11′s selectivity profile in 456 kinases/mutants with KinomeScan^TM technology.

CAMK2G = CAMK2G (Homo sapiens, UniProt Q13555); assay: biochemical; set-up: KinomeScan competition binding panel (DiscoveRx), percent of control at 1 uM; conditions: read-out: Percent Control
Chain of CAMK2G (Q13555 whole entry): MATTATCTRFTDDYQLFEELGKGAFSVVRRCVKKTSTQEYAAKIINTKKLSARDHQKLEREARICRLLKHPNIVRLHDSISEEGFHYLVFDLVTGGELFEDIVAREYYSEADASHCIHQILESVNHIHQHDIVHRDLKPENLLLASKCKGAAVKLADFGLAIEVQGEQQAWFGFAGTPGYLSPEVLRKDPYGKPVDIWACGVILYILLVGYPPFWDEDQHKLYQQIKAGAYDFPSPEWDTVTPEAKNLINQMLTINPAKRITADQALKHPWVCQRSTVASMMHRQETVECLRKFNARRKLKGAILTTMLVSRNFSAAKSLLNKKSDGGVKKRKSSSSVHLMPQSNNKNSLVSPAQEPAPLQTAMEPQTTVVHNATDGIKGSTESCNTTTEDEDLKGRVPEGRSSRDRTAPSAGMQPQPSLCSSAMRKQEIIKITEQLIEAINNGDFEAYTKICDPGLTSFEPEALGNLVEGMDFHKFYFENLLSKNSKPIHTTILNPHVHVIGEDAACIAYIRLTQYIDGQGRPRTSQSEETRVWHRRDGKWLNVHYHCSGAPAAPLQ
Description: as §1

CLK4 = CLK4 (Homo sapiens, UniProt Q9HAZ1); assay: biochemical; set-up: KinomeScan competition binding panel (DiscoveRx), percent of control at 1 uM; conditions: read-out: Percent Control
Description: as §1

EPHA1 = EPHA1 (Homo sapiens, UniProt P21709); assay: biochemical; set-up: KinomeScan competition binding panel (DiscoveRx), percent of control at 1 uM; conditions: read-out: Percent Control
Chain of EPHA1 (P21709 whole entry): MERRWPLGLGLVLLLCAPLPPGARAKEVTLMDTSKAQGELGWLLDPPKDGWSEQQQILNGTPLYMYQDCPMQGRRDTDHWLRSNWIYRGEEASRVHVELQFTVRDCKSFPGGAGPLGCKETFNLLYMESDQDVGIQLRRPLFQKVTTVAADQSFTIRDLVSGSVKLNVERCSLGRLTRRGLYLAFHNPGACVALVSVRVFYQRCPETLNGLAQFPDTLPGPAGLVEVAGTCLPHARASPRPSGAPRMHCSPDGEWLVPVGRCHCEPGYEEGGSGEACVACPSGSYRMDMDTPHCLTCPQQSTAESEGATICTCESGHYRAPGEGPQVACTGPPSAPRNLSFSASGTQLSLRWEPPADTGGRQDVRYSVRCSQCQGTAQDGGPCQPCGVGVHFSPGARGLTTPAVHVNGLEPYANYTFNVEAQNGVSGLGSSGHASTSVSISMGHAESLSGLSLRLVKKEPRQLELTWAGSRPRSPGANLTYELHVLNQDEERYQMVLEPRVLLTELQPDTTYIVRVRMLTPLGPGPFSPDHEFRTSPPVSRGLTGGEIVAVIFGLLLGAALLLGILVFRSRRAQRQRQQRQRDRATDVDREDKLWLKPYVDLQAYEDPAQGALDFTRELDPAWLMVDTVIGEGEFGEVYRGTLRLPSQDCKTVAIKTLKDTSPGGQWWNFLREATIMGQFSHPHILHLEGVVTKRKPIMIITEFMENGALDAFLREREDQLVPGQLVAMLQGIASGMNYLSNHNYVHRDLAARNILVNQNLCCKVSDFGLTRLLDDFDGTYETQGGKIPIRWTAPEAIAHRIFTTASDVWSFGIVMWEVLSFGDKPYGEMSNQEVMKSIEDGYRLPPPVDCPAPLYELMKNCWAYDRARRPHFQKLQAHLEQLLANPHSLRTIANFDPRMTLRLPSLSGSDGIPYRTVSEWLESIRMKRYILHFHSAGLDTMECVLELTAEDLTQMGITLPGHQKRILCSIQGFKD
Description: as §1

EPHA2 = EPHA2 (Homo sapiens, UniProt P29317); assay: biochemical; set-up: KinomeScan competition binding panel (DiscoveRx), percent of control at 1 uM; conditions: read-out: Percent Control
Chain of EPHA2 (P29317 whole entry): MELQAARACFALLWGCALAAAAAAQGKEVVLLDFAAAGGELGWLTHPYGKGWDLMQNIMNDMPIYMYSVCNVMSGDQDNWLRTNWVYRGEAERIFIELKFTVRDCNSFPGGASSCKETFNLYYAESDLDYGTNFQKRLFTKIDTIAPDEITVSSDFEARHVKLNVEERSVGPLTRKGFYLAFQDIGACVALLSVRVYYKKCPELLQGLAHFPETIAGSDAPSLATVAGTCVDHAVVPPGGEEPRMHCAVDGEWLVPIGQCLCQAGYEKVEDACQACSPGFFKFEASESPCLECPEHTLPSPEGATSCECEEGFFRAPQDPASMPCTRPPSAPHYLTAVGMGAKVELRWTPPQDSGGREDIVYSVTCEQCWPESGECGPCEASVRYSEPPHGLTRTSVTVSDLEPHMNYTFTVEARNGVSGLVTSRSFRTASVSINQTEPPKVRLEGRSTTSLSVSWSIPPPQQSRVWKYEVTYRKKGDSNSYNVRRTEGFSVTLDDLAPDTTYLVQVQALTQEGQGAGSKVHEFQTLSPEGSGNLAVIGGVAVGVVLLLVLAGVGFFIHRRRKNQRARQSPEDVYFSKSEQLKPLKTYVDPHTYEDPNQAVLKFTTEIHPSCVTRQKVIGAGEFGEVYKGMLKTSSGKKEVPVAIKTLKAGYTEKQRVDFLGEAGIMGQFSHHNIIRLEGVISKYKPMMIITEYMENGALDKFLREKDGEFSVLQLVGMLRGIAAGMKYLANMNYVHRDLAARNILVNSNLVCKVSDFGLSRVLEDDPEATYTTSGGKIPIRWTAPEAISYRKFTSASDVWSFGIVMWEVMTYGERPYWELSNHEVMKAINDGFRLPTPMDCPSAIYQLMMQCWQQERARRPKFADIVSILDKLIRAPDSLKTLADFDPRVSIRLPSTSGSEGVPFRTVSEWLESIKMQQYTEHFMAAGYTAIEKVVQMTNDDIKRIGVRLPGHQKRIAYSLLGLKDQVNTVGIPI
Description: as §1

EPHB3 = EPHB3 (Homo sapiens, UniProt P54753); assay: biochemical; set-up: KinomeScan competition binding panel (DiscoveRx), percent of control at 1 uM; conditions: read-out: Percent Control
Description: as §1

FLT1 = FLT1 (Homo sapiens, UniProt P17948); assay: biochemical; set-up: KinomeScan competition binding panel (DiscoveRx), percent of control at 1 uM; conditions: read-out: Percent Control
Description: as §1

HASPIN = HASPIN (Homo sapiens, UniProt Q8TF76); assay: biochemical; set-up: KinomeScan competition binding panel (DiscoveRx), percent of control at 1 uM; conditions: read-out: Percent Control
Description: as §1

INSRR = INSRR (Homo sapiens, UniProt P14616); assay: biochemical; set-up: KinomeScan competition binding panel (DiscoveRx), percent of control at 1 uM; conditions: read-out: Percent Control
Description: as §1

LRRK2 = LRRK2 (Homo sapiens, UniProt Q5S007); assay: biochemical; set-up: KinomeScan competition binding panel (DiscoveRx), percent of control at 1 uM; conditions: read-out: Percent Control
Description: as §1

LRRK2(G2019S) = LRRK2(G2019S) (Homo sapiens, UniProt Q5S007, G2019S); assay: biochemical; set-up: KinomeScan competition binding panel (DiscoveRx), percent of control at 1 uM; conditions: read-out: Percent Control
Description: as §1

MAP3K1 = MAP3K1 (Homo sapiens, UniProt Q13233); assay: biochemical; set-up: KinomeScan competition binding panel (DiscoveRx), percent of control at 1 uM; conditions: read-out: Percent Control
Description: as §1

MEK2 = target: T5, MEK2 (Homo sapiens, UniProt P36507); assay: biochemical; set-up: KinomeScan competition binding panel (DiscoveRx), percent of control at 1 uM; conditions: read-out: Percent Control
T5 construct: gene MAP2K2
Description: as §1

NIM1 = target: T6, NIM1 (Homo sapiens, UniProt Q8IY84); assay: biochemical; set-up: KinomeScan competition binding panel (DiscoveRx), percent of control at 1 uM; conditions: read-out: Percent Control
T6 construct: gene NIM1K
Description: as §1

NLK = NLK (Homo sapiens, UniProt Q9UBE8); assay: biochemical; set-up: KinomeScan competition binding panel (DiscoveRx), percent of control at 1 uM; conditions: read-out: Percent Control
Description: as §1

PAK7 = target: T7, PAK7 (Homo sapiens, UniProt Q9P286); assay: biochemical; set-up: KinomeScan competition binding panel (DiscoveRx), percent of control at 1 uM; conditions: read-out: Percent Control
T7 construct: gene PAK5
Description: as §1

PIM1 = PIM1 (Homo sapiens, UniProt P11309); assay: biochemical; set-up: KinomeScan competition binding panel (DiscoveRx), percent of control at 1 uM; conditions: read-out: Percent Control
Description: as §1

PLK4 = PLK4 (Homo sapiens, UniProt O00444); assay: biochemical; set-up: KinomeScan competition binding panel (DiscoveRx), percent of control at 1 uM; conditions: read-out: Percent Control
Description: as §1

RET(V804L) = RET(V804L) (Homo sapiens, UniProt P07949, V804L); assay: biochemical; set-up: KinomeScan competition binding panel (DiscoveRx), percent of control at 1 uM; conditions: read-out: Percent Control
Chain of RET(V804L) (P07949 whole entry V804L): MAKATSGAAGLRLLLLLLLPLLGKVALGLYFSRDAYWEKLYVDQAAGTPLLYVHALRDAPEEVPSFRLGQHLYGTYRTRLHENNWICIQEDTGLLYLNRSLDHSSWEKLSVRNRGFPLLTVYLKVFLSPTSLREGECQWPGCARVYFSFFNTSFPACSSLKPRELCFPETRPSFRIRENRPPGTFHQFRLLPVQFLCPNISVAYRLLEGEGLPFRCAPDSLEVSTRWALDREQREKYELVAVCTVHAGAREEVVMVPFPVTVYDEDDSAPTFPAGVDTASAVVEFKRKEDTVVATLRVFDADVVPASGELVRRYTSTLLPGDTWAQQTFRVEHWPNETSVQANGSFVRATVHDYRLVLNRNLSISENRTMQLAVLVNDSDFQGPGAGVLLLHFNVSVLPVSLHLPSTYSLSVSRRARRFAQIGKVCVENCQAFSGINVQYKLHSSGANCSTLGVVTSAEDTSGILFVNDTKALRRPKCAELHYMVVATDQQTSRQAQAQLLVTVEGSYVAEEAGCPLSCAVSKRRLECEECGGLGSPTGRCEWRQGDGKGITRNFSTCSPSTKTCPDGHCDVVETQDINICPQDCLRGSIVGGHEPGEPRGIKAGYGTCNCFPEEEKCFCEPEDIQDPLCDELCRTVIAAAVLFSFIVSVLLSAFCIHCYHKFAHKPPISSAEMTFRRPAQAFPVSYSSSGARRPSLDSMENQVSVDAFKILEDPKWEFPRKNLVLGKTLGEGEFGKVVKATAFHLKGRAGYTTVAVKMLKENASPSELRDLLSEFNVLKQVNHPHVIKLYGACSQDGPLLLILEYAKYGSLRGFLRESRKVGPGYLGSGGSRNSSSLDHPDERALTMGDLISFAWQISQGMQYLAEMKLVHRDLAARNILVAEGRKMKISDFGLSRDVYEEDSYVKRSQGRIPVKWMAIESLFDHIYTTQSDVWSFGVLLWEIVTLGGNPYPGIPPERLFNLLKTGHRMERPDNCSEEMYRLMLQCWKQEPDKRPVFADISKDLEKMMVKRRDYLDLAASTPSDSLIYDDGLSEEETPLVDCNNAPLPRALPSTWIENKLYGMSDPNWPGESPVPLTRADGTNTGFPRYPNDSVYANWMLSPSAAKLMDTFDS
Description: as §1

RIOK3 = RIOK3 (Homo sapiens, UniProt O14730); assay: biochemical; set-up: KinomeScan competition binding panel (DiscoveRx), percent of control at 1 uM; conditions: read-out: Percent Control
Description: as §1

TAOK2 = TAOK2 (Homo sapiens, UniProt Q9UL54); assay: biochemical; set-up: KinomeScan competition binding panel (DiscoveRx), percent of control at 1 uM; conditions: read-out: Percent Control
Chain of TAOK2 (Q9UL54 whole entry): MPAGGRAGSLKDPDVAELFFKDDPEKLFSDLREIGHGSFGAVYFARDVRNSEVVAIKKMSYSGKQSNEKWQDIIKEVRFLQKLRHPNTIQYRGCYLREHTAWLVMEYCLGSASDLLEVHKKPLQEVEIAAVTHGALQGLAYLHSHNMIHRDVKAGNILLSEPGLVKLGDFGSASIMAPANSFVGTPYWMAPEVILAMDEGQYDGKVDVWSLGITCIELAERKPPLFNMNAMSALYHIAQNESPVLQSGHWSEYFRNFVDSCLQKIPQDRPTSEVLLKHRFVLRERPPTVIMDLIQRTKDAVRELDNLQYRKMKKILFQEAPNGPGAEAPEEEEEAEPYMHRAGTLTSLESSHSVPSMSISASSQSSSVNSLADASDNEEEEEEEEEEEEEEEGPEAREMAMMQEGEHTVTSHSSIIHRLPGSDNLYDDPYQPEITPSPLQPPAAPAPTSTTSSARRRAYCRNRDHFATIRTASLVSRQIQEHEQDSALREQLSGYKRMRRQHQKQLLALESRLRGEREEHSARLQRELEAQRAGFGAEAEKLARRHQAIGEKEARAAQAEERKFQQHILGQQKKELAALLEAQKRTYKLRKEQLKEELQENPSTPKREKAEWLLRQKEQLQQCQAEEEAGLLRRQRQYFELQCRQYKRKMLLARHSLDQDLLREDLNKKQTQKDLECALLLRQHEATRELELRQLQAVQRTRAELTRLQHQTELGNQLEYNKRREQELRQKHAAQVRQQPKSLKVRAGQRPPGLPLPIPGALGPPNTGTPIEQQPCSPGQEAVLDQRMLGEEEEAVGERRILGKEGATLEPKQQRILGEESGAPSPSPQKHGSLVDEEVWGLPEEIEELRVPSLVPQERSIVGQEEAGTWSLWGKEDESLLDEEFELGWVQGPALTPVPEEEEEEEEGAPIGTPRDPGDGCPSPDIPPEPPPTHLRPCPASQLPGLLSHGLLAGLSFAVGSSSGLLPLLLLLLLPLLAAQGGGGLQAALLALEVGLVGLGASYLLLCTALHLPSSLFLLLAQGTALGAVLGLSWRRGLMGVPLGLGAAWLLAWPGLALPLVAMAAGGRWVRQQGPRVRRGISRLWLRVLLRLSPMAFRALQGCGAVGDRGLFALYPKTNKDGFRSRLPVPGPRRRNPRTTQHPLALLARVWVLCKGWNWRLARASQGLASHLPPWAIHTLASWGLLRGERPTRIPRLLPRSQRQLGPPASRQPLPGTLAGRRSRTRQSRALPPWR
Description: as §1

**Q.** Which results are given for `C=CC(=O)Nc1cc(-n2c(=O)ccc3cnc4ccc(-n5cccn5)cc4c32)ccc1C` [CHMFL-BTK-11]?
**A.** IC50 [1]: 0.0268 µM; IC50 (JAK3 kinase): 0.227 µM; remaining binding at 1 µM (PFPK5(P.falciparum)): 100%; remaining binding at 1 µM (PKNB(M.tuberculosis)): 69%; remaining binding at 1 µM (ASK2): 100%; remaining binding at 1 µM (CAMK2G): 73%; remaining binding at 1 µM (CLK4): 90%; remaining binding at 1 µM (EPHA1): 100%; remaining binding at 1 µM (EPHA2): 88%; remaining binding at 1 µM (EPHB3): 97%; remaining binding at 1 µM (FLT1): 88%; remaining binding at 1 µM (HASPIN): 59%; remaining binding at 1 µM (INSRR): 100%; remaining binding at 1 µM (LRRK2): 96%; remaining binding at 1 µM (LRRK2(G2019S)): 95%; remaining binding at 1 µM (MAP3K1): 100%; remaining binding at 1 µM (MEK2): 92%; remaining binding at 1 µM (NIM1): 100%; remaining binding at 1 µM (NLK): 100%; remaining binding at 1 µM (PAK7): 100%; remaining binding at 1 µM (PIM1): 82%; remaining binding at 1 µM (PLK4): 56%; remaining binding at 1 µM (RET(V804L)): 97%; remaining binding at 1 µM (RIOK3): 80%; remaining binding at 1 µM (TAOK2): 91%
